According to patent publication US20240101570A1 (AMGEN INC., priority 2020, published 2024):

Legend:
[1] = system: HCT116 MTAP null cells; experiment: HCT116 MTAP null cell proliferation / viability (CellTiter-Glo, 6 days); format: cell-based; conditions: HCT116-MTAP null, 144 h, HCT116 MTAP null cells, 6 days, CellTiter-Glo; read-out: HCT-116 MTAP null IC50
In short: (§1)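 IC50 values derive from sigmoidal dose-response fits, some with Hill slope fixed at −1 and top constrained to 100%, others from 4-parameter logistic models. They reflect CellTiter-Glo viability after 6 days of compound exposure at up to 10 or 50 μM.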

[2] = system: HCT116 WT cells; experiment: HCT116 WT cell proliferation / viability (CellTiter-Glo, 6 days); format: cell-based; conditions: Homo sapiens, HCT-116, 144 h, HCT116 WT cells, 6 days, CellTiter-Glo; read-out: HCT-116 WT IC50
In short: as §1

Compound | IC50 [1] | IC50 [2]
CCN(Cc1ccc(C(F)(F)F)cn1)C(=O)c1cc2c(cc1Cl)nc(N)c1cnn(C)c12 [Example 793, 4-amino-7-chloro-N-ethyl-1-methyl-N-((5-(trifluoromethyl)-2-pyridinyl)methyl)-1H-pyrazolo[4,3-c]quinoline-8-carboxamide] | 11 nM | 296 nM
CCN(Cc1ccc(C(F)(F)F)nn1)C(=O)c1cc2c(cc1Cl)nc(N)c1cnn(C)c12 [Example 794, 4-amino-7-chloro-N-ethyl-1-methyl-N-((6-(trifluoromethyl)-3-pyridazinyl)methyl)-1H-pyrazolo[4,3-c]quinoline-8-carboxamide] | 20 nM | 499 nM
Cn1ncc2c(N)nc3cc(Cl)c(C(=O)N(Cc4ccc(C(F)(F)F)nn4)C4CC4)cc3c21 [Example 796, 4-amino-7-chloro-N-cyclopropyl-1-methyl-N-((6-(trifluoromethyl)-3-pyridazinyl)methyl)-1H-pyrazolo[4,3-c]quinoline-8-carboxamide] | 34 nM | 1670 nM
Cn1ncc2c(N)nc3ccc(C(=O)N(Cc4ccc(C(F)(F)F)cn4)CC(F)(F)F)cc3c21 [Example 797, 4-amino-1-methyl-N-(2,2,2-trifluoroethyl)-N-((5-(trifluoromethyl)-2-pyridinyl)methyl)-1H-pyrazolo[4,3-c]quinoline-8-carboxamide] | 41 nM | 755 nM
Cn1ncc2c(N)nc3cc(F)c(C(=O)N(Cc4ccc(C(F)(F)F)cn4)CC(F)(F)F)cc3c21 [Example 800, 4-amino-7-fluoro-1-methyl-N-(2,2,2-trifluoroethyl)-N-((5-(trifluoromethyl)-2-pyridinyl)methyl)-1H-pyrazolo[4,3-c]quinoline-8-carboxamide] | 7 nM | 245 nM
Cn1ncc2c(N)nc3cc(F)c(C(=O)N(Cc4cocn4)C4CCC4)cc3c21 [Example 801, 4-amino-N-cyclobutyl-7-fluoro-1-methyl-N-(1,3-oxazol-4-ylmethyl)-1H-pyrazolo[4,3-c]quinoline-8-carboxamide] | 153 nM | 13600 nM
Cn1ncc2c(N)nc3cc(F)c(C(=O)N(Cc4ccc(C(F)(F)F)nn4)C4CC4)cc3c21 [Example 804, 4-amino-N-cyclopropyl-7-fluoro-1-methyl-N-((6-(trifluoromethyl)-3-pyridazinyl)methyl)-1H-pyrazolo[4,3-c]quinoline-8-carboxamide] | 26 nM | 1800 nM
COc1nc(C(F)(F)F)ccc1CN(C)C(=O)c1cc2c(cc1F)nc(N)c1cnn(C)c12 [Example 806, 4-amino-7-fluoro-N-((2-methoxy-6-(trifluoromethyl)-3-pyridinyl)methyl)-N,1-dimethyl-1H-pyrazolo[4,3-c]quinoline-8-carboxamide] | 56 nM | 3160 nM
Cn1ncc2c3cc(C(=O)N(Cc4ccc(C(F)(F)F)cn4)C4CC4)c(Cl)cc3nc(N)c21 [Example 808, 4-amino-7-chloro-N-cyclopropyl-3-methyl-N-((5-(trifluoromethyl)-2-pyridinyl)methyl)-3H-pyrazolo[3,4-c]quinoline-8-carboxamide] | 52 nM | 3130 nM
Cn1ncc2c(N)nc3cc(F)c(C(=O)N(Cc4ncc(C(F)(F)F)cc4F)C4CC4)cc3c21 [Example 809, 4-amino-N-cyclopropyl-7-fluoro-N-((3-fluoro-5-(trifluoromethyl)-2-pyridinyl)methyl)-1-methyl-1H-pyrazolo[4,3-c]quinoline-8-carboxamide] | 31 nM | 1790 nM
Nc1nc2cc(F)c(C(=O)N(Cc3ccc(OCC(F)(F)F)nn3)CC3CC3)cc2c2c1COC2 [Example 816, 4-amino-N-(cyclopropylmethyl)-7-fluoro-N-((6-(2,2,2-trifluoroethoxy)-3-pyridazinyl)methyl)-1,3-dihydrofuro[3,4-c]quinoline-8-carboxamide] | 78 nM | 2490 nM
C[C@H]1OCc2c1c(N)nc1cc(F)c(C(=O)N(Cc3ccc(OCC(F)(F)F)nn3)CC3CC3)cc21 [Example 818, (3R)-4-amino-N-(cyclopropylmethyl)-7-fluoro-3-methyl-N-((6-(2,2,2-trifluoroethoxy)-3-pyridazinyl)methyl)-1,3-dihydrofuro[3,4-c]quinoline-8-carboxamide] | 7 nM | 161 nM

Further molecules by falling IC50 [1], results first:

IC50 [1] | IC50 [2] | Compound
676 nM | 29300 nM | Cn1ncc2c(N)nc3cc(C(F)(F)F)c(C(=O)N(Cc4ccc(C(F)(F)F)nn4)C4CC4)cc3c21 [Example 813, 4-amino-N-cyclopropyl-1-methyl-7-(trifluoromethyl)-N-((6-(trifluoromethyl)-3-pyridazinyl)methyl)-1H-pyrazolo[4,3-c]quinoline-8-carboxamide]
645 nM | > 50000 nM | CN(Cc1ccc(C(F)(F)F)nn1)C(=O)c1cc2c(cc1C(F)(F)F)nc(N)c1cnn(C)c12 [Example 811, 4-amino-N,1-dimethyl-7-(trifluoromethyl)-N-((6-(trifluoromethyl)-3-pyridazinyl)methyl)-1H-pyrazolo[4,3-c]quinoline-8-carboxamide]
237 nM | 14100 nM | Cn1ncc2c(N)nc3cc(C(F)(F)F)c(C(=O)N(Cc4ccc(C(F)(F)F)cn4)C4CC4)cc3c21 [Example 812, 4-amino-N-cyclopropyl-1-methyl-7-(trifluoromethyl)-N-((5-(trifluoromethyl)-2-pyridinyl)methyl)-1H-pyrazolo[4,3-c]quinoline-8-carboxamide]
226 nM | 13800 nM | CN(Cc1ccc(C(F)(F)F)cn1)C(=O)c1cc2c(cc1C(F)(F)F)nc(N)c1cnn(C)c12 [Example 810, 4-amino-N,1-dimethyl-7-(trifluoromethyl)-N-((5-(trifluoromethyl)-2-pyridinyl)methyl)-1H-pyrazolo[4,3-c]quinoline-8-carboxamide]
44 nM | 1170 nM | C[C@H](C1CC1)N(Cc1ccc(C(F)(F)F)nn1)C(=O)c1cc2c3c(c(N)nc2cc1F)COC3 [Example 814, 4-amino-N-((1R)-1-cyclopropylethyl)-7-fluoro-N-((6-(trifluoromethyl)-3-pyridazinyl)methyl)-1,3-dihydrofuro[3,4-c]quinoline-8-carboxamide]
30 nM | 2330 nM | CN(Cc1ccc(C(F)(F)F)nn1)C(=O)c1cc2c(cc1Cl)nc(N)c1cnn(C)c12 [Example 792, 4-amino-7-chloro-N,1-dimethyl-N-((6-(trifluoromethyl)-3-pyridazinyl)methyl)-1H-pyrazolo[4,3-c]quinoline-8-carboxamide]
28 nM | 689 nM | Cn1ncc2c3cc(C(=O)N(Cc4ccc(OCC(F)(F)F)nn4)CC4CC4)c(F)cc3nc(N)c21 [Example 817, 4-amino-N-(cyclopropylmethyl)-7-fluoro-3-methyl-N-((6-(2,2,2-trifluoroethoxy)-3-pyridazinyl)methyl)-3H-pyrazolo[3,4-c]quinoline-8-carboxamide]
21 nM | 1380 nM | CN(Cc1ccc(C(F)(F)F)cn1)C(=O)c1cc2c(cc1F)nc(N)c1cnn(C)c12 [Example 802, 4-amino-7-fluoro-N,1-dimethyl-N-((5-(trifluoromethyl)-2-pyridinyl)methyl)-1H-pyrazolo[4,3-c]quinoline-8-carboxamide]
18 nM | 301 nM | C[C@@H](C1CC1)N(Cc1ccc(C(F)(F)F)nn1)C(=O)c1cc2c3c(c(N)nc2cc1F)COC3 [Example 815, 4-amino-N-((1S)-1-cyclopropylethyl)-7-fluoro-N-((6-(trifluoromethyl)-3-pyridazinyl)methyl)-1,3-dihydrofuro[3,4-c]quinoline-8-carboxamide]
12 nM | 384 nM | Cn1ncc2c(N)nc3cc(F)c(C(=O)N(Cc4ccc(C(F)(F)F)cn4)C4CC4)cc3c21 [Example 803, 4-amino-N-cyclopropyl-7-fluoro-1-methyl-N-((5-(trifluoromethyl)-2-pyridinyl)methyl)-1H-pyrazolo[4,3-c]quinoline-8-carboxamide]
10 nM | 152 nM | Cn1ncc2c(N)nc3cc(Cl)c(C(=O)N(Cc4ccc(C(F)(F)F)cn4)C4CCC4)cc3c21 [Example 798, 4-amino-7-chloro-N-cyclobutyl-1-methyl-N-((5-(trifluoromethyl)-2-pyridinyl)methyl)-1H-pyrazolo[4,3-c]quinoline-8-carboxamide]
8 nM | 379 nM | Cn1ncc2c(N)nc3cc(Cl)c(C(=O)N(Cc4ccc(C(F)(F)F)cn4)C4CC4)cc3c21 [Example 795, 4-amino-7-chloro-N-cyclopropyl-1-methyl-N-((5-(trifluoromethyl)-2-pyridinyl)methyl)-1H-pyrazolo[4,3-c]quinoline-8-carboxamide]
8 nM | 263 nM | Cn1ncc2c(N)nc3cc(Cl)c(C(=O)N(Cc4ccc(C(F)(F)F)nn4)C4CCC4)cc3c21 [Example 799, 4-amino-7-chloro-N-cyclobutyl-1-methyl-N-((6-(trifluoromethyl)-3-pyridazinyl)methyl)-1H-pyrazolo[4,3-c]quinoline-8-carboxamide]
8 nM | 121 nM | CC(C)N(Cc1ccc(C(F)(F)F)cn1)C(=O)c1cc2c(cc1F)nc(N)c1cnn(C)c12 [Example 805, 4-amino-7-fluoro-1-methyl-N-(2-propanyl)-N-((5-(trifluoromethyl)-2-pyridinyl)methyl)-1H-pyrazolo[4,3-c]quinoline-8-carboxamide]
5 nM | 114 nM | Cn1ncc2c(N)nc3cc(F)c(C(=O)N(Cc4ccc(C(F)(F)F)cn4)C4CCC4)cc3c21 [Example 807, 4-amino-N-cyclobutyl-7-fluoro-1-methyl-N-((5-(trifluoromethyl)-2-pyridinyl)methyl)-1H-pyrazolo[4,3-c]quinoline-8-carboxamide]
